According to PMC8881077 (Journal of Enzyme Inhibition and Medicinal Chemistry, 2022):
Values joined by “and” are separate entries in the source; they are usually repeats but may differ in a detail not shown here. Equal values may be shown once.

Legend:
[1] = system: TNF-α production in LPS-induced BV-2 cells; assay: TNF-α production in BV-2 cells, ELISA; type: cell-based; details: 1.0 μg/mL LPS
Procedure: (§1) Compounds 5f and 7k were selected to test the anti-inflammatory potency by measuring the production of inflammatory mediators TNF-α and NO in LPS-induced BV-2 cells[32]^,[33]. • Cytotoxicity of compounds 5f and 7k on BV-2 cells. Firstly, the cytotoxicity of compounds 5f and 7k were tested using an MTT assay. […] In inhibition of LPS-induced, NO production was tested through the Griess reaction method. […] In addition, to further investigate the effects of compounds 5f and 7k on LPS-induced TNF-α production in BV-2 cells, the enzyme-linked immunosorbent assay (ELISA) was used.
Inhibition of LPS-induced TNF-α production was evaluated with an enzyme-linked immunosorbent assay (ELISA). The methods of BV-2 cells culture, adding different concentrations of tested compounds 5f or 7k (1 μM, 3 μM and 9 μM) (10 μL) and LPS (1.0 μg/mL, 10 μL) and setting blank control group were the same as above in cytotoxicity assay. Then, the supernatant of the cell culture solution (50 μL) was added to a 96-well plate and the release of cytokine TNF-α was measured by ELISA according to the instructions of the ELISA kit.

[2] = Metal-chelating property, UV-visual spectrometry; type: physicochemical; details: for molar ratio at intersection: complex with Cu^2+; for maximum absorption wavelength after adding AlCl3: compound and AlCl3 37.5 μM in methanol; for maximum absorption wavelength after adding CuCl2: compound and CuCl2 37.5 μM in methanol; for maximum absorption after adding FeSO4: compound and FeSO4 37.5 μM in methanol; for maximum absorption after adding ZnCl2: compound and ZnCl2 37.5 μM in methanol
Procedure: The chelating property of compounds 5f and 7k were determined by UV-visual spectrometry and biometals such as Cu^2+, Zn^2+, Al^3+ and Fe^2+ were applied[19]^,[20]. […] The stoichiometry of the 5f-Cu^2+ complex was determined using the molar ratio method by preparing solutions of compound 5f with increasing amounts of CuCl2 at 386 nm.
Further, the stoichiometry of the 7k-Cu^2+ complex was determined using the molar ratio method at 385 nm.
The metal chelation property was investigated by UV absorption in a Shimadzu UV-2450 spectrophotometer. The detailed procedure referenced our previous work[20]^,[22].

[3] = system: NO production in LPS-induced BV-2 cells; assay: NO production in BV-2 cells, Griess reaction; type: cell-based; details: for release volume of NO in BV-2 cells without LPS: 3 μM and 9 μM
Procedure: as §1
Griess reagent system was used to evaluate the inhibition of LPS-induced NO production. The methods of culturing BV-2 cells, setting blank control and adding tested compounds 5f or 7k (1 μM, 3 μM and 9 μM) and LPS were the same as those in the cytotoxicity assay. After that, the cell culture supernatants and different concentrations of NaNO2 as a standard were added to a 96-well plate since the NaNO2 concentration in the supernatant could act as an indicator of NO production. Then, to each well was added the same volume of Griess reagent and incubated at room temperature for 10 min. Finally, the absorbance was monitored at 540 nm using an ELISA plate reader to measure the results of NO production.

[4] = PAMPA-BBB; for Pe: final concentration 100 μg/mL
[5] = system: normal human hepatocytes cell line (LO2); assay: Hepatoprotective activity on H2O2-induced LO2 cell injury; type: cell-based; details: LO2 cells, 1000 μM H2O2
Procedure: The anti-AD drug tacrine has been forced to withdraw due to severe hepatotoxicity. Thus, the hepatotoxicity of compounds 5f on normal human hepatocytes cell line (LO2) was evaluated using MTT assay. […] Furthermore, the hepatoprotective activity of compound 5f on H2O2-induced live injury was tested using an MTT assay. […]
• Materials. LO2 cells purchased from Wuhan Punosi Life Technology Co., Ltd. 30% H2O2, Trichloroacetic acid (TCA), SRB, DMEM medium (HyClone), Foetal bovine serum (LNSER, article number: S711-001S), Penicillin streptomycin mixture (double antibiotic) (Solarbio), 0.25% trypsin-EDTA digestive juice (Solarbio), DMSO (Solarbio), Potassium dihydrogen phosphate (Xiyu Science Co., Ltd., CAS: 7778-77-0); Ultra-clean workbench (Wuxi Easy Purification Equipment Co., Ltd., model: SW-CJ-VS2); Carbon dioxide incubator (Esco, model: 2014-88759); […]; • Experiment method. (a) Cell culture: cultured in DMEM medium containing 10% FBS and 1% double-antibody, placed in 37 °C, 5% CO2 constant temperature and humidity incubator, changed every 2 days, subcultured when cells were 90% confluent. (b) Effect of compounds on LO2 proliferation by SRB assay: Discard the culture medium, fix the cells with 10% (m/v) trichloroacetic acid (TCA) 100 μL, and place in a refrigerator at 4 °C for 1 h. The fixing solution was discarded, washed 5 times with distilled water, and dried in an oven. Adding 100 μL SRB solution to each well after drying, and leave it at room temperature for 10-30 min. Discard the supernatant, wash it 5 times with 1% glacial acetic acid water, air dry. Finally, add 100 μL/well of 10 mmol/L Tris-based buffer solution and oscillate on a plate shaker. The OD value was measured at 515 nm using a microplate reader. Cell viability (%) = OD test well/OD blank control well x 100%. (c) Effect of compounds on H2O2-induced LO2 cell injury by SRB assay. […] After treatment with H2O2 for 6h, the survival rate was measured by the SRB method.

[6] = system: scopolamine-induced mice memory impairment; assay: Step-down passive avoidance task; details: scopolamine 3 mg/kg
Procedure: Sixty mice were randomly divided into six groups. […] After 30 min, memory impairment was induced by administering scopolamine (3 mg/kg).

Row | Compound | TNF-α production ([1]; 1 μM) [pg/mL] | TNF-α production ([1]; 3 μM) [pg/mL] | TNF-α production ([1]; 9 μM) [pg/mL] | molar ratio at intersection [2] | maximum absorption wavelength after adding AlCl3 [2] | maximum absorption wavelength after adding CuCl2 [2] [nm] | maximum absorption after adding FeSO4 [2] | maximum absorption after adding ZnCl2 [2] | release volume of NO in BV-2 cells without LPS ([3]; 1 μM) | Prediction [4] | Pe [4] | further results
1 | 7-((6-(benzyl(ethyl)amino)hexyl)oxy)-2–(4-((6-(benzyl(ethyl)amino)hexyl)oxy)phenyl)-5-hydroxychroman-4-one [Compound 7k] | 1295 | 915 | 553 | 1.1 | did not show an obvious change | 385 | did not show an obvious change | did not show an obvious change | did not produce significant change | CNS+ (Pe > 3.44 displayed high BBB permeation) | 11.7 ×10^−6 cm/s and 11.7 ± 0.54 ×10^−6 cm/s | inhibitory rate of TNF-α production ([1]; 1 μM): 23.8%; inhibitory rate of TNF-α production ([1]; 3 μM): 46.2%; inhibitory rate of TNF-α production ([1]; 9 μM): 67.5%; inhibition rate of LPS-induced NO production ([3]; 1 μM, 1 μg/mL LPS): 26.7%; inhibition rate of LPS-induced NO production ([3]; 3 μM, 1 μg/mL LPS): 36.2%; inhibition rate of LPS-induced NO production ([3]; 9 μM, 1 μg/mL LPS): 48.5%
2 | CCN(CCCCCOc1cc(O)c2c(c1)OC(c1ccc(O)cc1)CC2=O)Cc1ccccc1 (stereo not shown) [Compound 5f, 7-((5-(benzyl(ethyl)amino)pentyl)oxy)-5-hydroxy-2–(4-hydroxyphenyl)chroman-4-one] | 1130 | 728 | 394 | 1.1 | 388 nm | 386 | did not present obvious shift | did not present obvious shift | did not produce significant change | CNS+ (Pe > 3.44 displayed high BBB permeation) | 6.9e-06 cm/s | inhibition at 1 µM ([1]; Mus musculus, BV-2, 1 μM, read-out: inhibitory rate of TNF-α production): 33.5%; inhibition at 3 µM ([1]; Mus musculus, BV-2, 3 μM, read-out: inhibitory rate of TNF-α production): 57.2%; inhibition at 9 µM ([1]; Mus musculus, BV-2, 9 μM, read-out: inhibitory rate of TNF-α production): 76.8%; viability at 5 µM ([5]; L02, 5.0 μM): 65.2%; viability at 10 µM ([5]; L02, 10.0 μM): 69.7%; viability at 20 µM ([5]; L02, 20.0 μM): 79.4%; step-down latency ([6]; 1.9 mg/kg): 153.7 s; step-down latency ([6]; 5.7 mg/kg): 183.4 s; step-down latency ([6]; 17.1 mg/kg): 207.8 s; inhibition at 1 µM ([3]; Mus musculus, BV-2, 1 μM, 1 μg/mL LPS, read-out: inhibition rate of LPS-induced NO production): 37.6%; inhibition at 3 µM ([3]; Mus musculus, BV-2, 3 μM, 1 μg/mL LPS, read-out: inhibition rate of LPS-induced NO production): 52.1%; inhibition at 9 µM ([3]; Mus musculus, BV-2, 9 μM, 1 μg/mL LPS, read-out: inhibition rate of LPS-induced NO production): 63.8%
